# According to US5369111A, “Modulator agent and use thereof” (University of Vermont, priority 1992, dated 1994):
# Entries after “also recorded” stand apart in the source; their conditions may differ. Like-named read-outs stand apart in the source and are kept apart here.
# How the values were obtained:
# S180/A10 cells = assay: Modulator potency in MDR cells: reversal of acquired resistance, S180/A10; format: cell-based, murine; details: for reversal of high level ADM resistance: 90-fold resistance, A10; for Modulator potency in MDR cells (minimal concentration restoring parental drug sensitivity), VBL: drug resistance level 10; for Modulator potency in MDR cells (minimal concentration restoring parental drug sensitivity), VCR: drug resistance level 17
# Protocol: (§1) Mid-exponential cultures were used for all assays. The RCC-2 and RCC-5 cell lines were seeded into 24-well plates at 2×10^4 cells/well and allowed to attach to the substratum for 16-18 h prior to treatment. The S180 cell lines were seeded into culture tubes at 1×10^5 cells/ml and treated immediately. Cytotoxicity was determined by quantitation of population growth after 72 h incubation by electronic particle counter (Coulter Electronics, Hialeah, Fla.). The human tumor cell lines were used in a clonogenic assay for cytotoxicity. Cells were seeded at 300 cells/dish, incubated overnight and then treated. Colonies were scored 7-11 days later. In all assays of analog modulation of drug sensitivity, the analog was added minutes prior to the addition of cytotoxic drug.
# (§2) To evaluate the ability of vindoline and the two diastereoisomeric VBL analogs to modulate the MDR phenotype (acquired resistance) of the A3 and A10 cell stains, we determined the concentration of compound required to restore drug sensitivities to parental levels. This was done by exposing the MDR cell line to a concentration range of modulator in the presence VBL, VCR and ADM at the respective IC70s of the parental cell line. The cytotoxicity curves for A3 and A10 cells, shown in FIG. 5, are distinctive among the three vinca alkaloids examined. In each cell line, there was a minimum concentration of modulator that elicited 70% growth inhibition for each drug - i.e. the reversing concentration.
# (§3) *The minimal concentration of modulator required to restore the drug
# (§4) sensitivity of S180/MDR cell strains to that of parental S180 cells. Data
# (§5) are the averages of 2-3 separate experiments, S.D. ≤20%.
# [1] = test system: S180 cell system (S180, A3, A10); assay: Inherent cytotoxicity in the S180 cell system (S180, A3, A10); format: cell-based, murine
# Text: (§6) The analogs were examined in a panel of tumor cell lines of both intrinsic and acquired drug resistance, as described in Table 1. The rat colon adenocarcinoma cell lines RCC-2 and RCC-5 (ref. 13) were maintained in Ham's F12 medium supplemented with 5% heat-inactivated, fetal bovine serum (Sterile Systems. Hyclone, Logan, Utah). The two rat colon cancer cell lines differ in their degree of cellular differentiation; whereas the RCC-2 cell line is undifferentiated, the RCC-5 cell line is highly mucinous. The human epidermoid carcinoma cell line KB-3-1 and its MDR variant KB-Vl, selected by VBL treatment (ref. 14; courtesy of M. Gottesman. National Cancer Institute), was maintained in DMEM medium supplemented with 10%, heat-inactivated, fetal bovine serum. The murine sarcoma cell line […] and its MDR strains A3 and A10 selected by ADM treatment (ref. 15; courtesy of T. Tritton, Dept. Pharmacology, Univ. Vermont). were maintained in DMEM medium supplemented with 10% heat-inactivated, horse serum (Hazelton Biolog. Lenexa, Kans.). Stock cultures were subcultured twice weekly upon reaching the late exponential phase of population growth: population doubling times were 18-24 h. Antibiotics were not used in stock or experimental cultures. The MDR cell strains were grown in drug-free media for 48 h prior to experimental use.
# as §1
# FIG. 2 represents the toxicity of the vinca alkaloid compounds to population growth. Vindoline, vincovaline or the analog, C-20'-deoxy vincovaline was added, at various concentrations, to S180 (.cndot.), A3 (o), or A10 (Δ) cell cultures. The population cell number was determined 72 hours later.
# S180 cells, parental = assay: Modulation of intrinsic drug resistance, parental S180; format: cell-based, murine; details: for modulation of sensitivity of parental S180 cells to VBL, VCR and ADM (in words): all three drugs; for Maximum sensitization of parental cells by modulator, drug ADM / Maximum sensitization of parental cells by modulator, drug VBL / Maximum sensitization of parental cells by modulator, drug VCR: S180, IC50 drug alone / IC50 drug + modulator, at nontoxic concentration limit
# Protocol: as §1
# The ability of the compounds to modulate drug sensitivity in parental cells was studied over a range of concentrations of each compound, from 10^-6 M to the non-toxic (IC10-20) or solubility limit. […] From such experiments, we determined a sensitivity index derived from the IC50 of the drug without modulator treatment divided by the drug IC50 at each concentration of modulator.
# When the sensitivity index for each drug, VBL, VCR and ADM is plotted versus the modulator concentration (FIG. 4), we can compare the relative potencies of the compounds as modulators of drug toxicity to the parental S180 cells.
# (§7) *calculated as the IC50 of the drug alone divided by the IC50 o
# (§8) the [drug modulator] combination. Data are presented from tretments with
# FIG. 4 represents the potency of the vinca alkaloid compounds as modulators of drug sensitivity in S180 cells. The enhancement of sensitivity was calculated as the sensitivity index=IC50 of the drug alone divided by the IC50 of the drug+modulator. The IC50s for ADM (o) VBL (Δ), or VCR (.quadrature.) were determined over a concentration range of each modulator from data such as those depicted in FIG. 3. The values presented were averaged from duplicate samples of two separate experiments, S.D. <15% of the mean.
# [2] = test system: S180 MDR cell strains A3 and A10; assay: Modulation of acquired drug resistance in the S180 MDR cell strains A3 and A10; format: cell-based, murine; details: for range of resistance levels over which parental sensitivity was restored: VCR and ADM
# Protocol: as §1, §2
# FIG. 5 represents the modulation of multidrug resistance in the MDR cell strains by the vinca alkaloids. Vindoline (A), vincovaline (B), or the analog C-20'-deoxy vincovaline (C) was added, at various concentrations, to A3 (closed symbols) or A10 (opened symbols) cell cultures containing the parental IC70 of each drug: 2.0×10^-7 M. ADM (circles: 1.5×10^-8 M VBL (triangles); and 4.5×10^-8 M; VCR (squares). Population growth was determined 72 hours later.
# FIG. 6 represents the relationship between cellular drug resistance level and the minimal modulator concentration required for complete reversal of drug resistance. The drugs examined were ADM (o), VBL (Δ), and VCR (.quadrature.). The amount (concentration) of modulator, necessary to reverse each level of drug resistance contained in the A3 and A10 cell lines, was determined from data such as those of FIG. 5. The values presented were averaged from duplicate samples of two separate experiments, S.D.<15% of the mean. The arrows denote the non-toxic concentration limit for the modulator; in the case of Vincovaline this value is dependent on the MDR cell strain, 2×10^-5 M, A3; 5×10^-5 M. A10.
# FIG. 11 represents the modulation of multidrug resistance in the S180 MDR cell strains A3 and A10. The cellular drug resistance level is plotted against the minimal concentration of C-20'-deoxy deethyl vincovaline required for the complete reversal of drug resistance to ADM (o), VBL (Δ), and VCR (.quadrature.). In the case of high level ADM resistance […], the sensitivity of the cells was restored to 80% of the parental value. The arrow denotes the non-toxic concentration limit of the analog.
# S180/A3 cells = assay: Modulator potency in MDR cells: reversal of acquired resistance, S180/A3; format: cell-based, murine; details: for Modulator potency in MDR cells (minimal concentration restoring parental drug sensitivity), ADM: drug resistance level 15; for Modulator potency in MDR cells (minimal concentration restoring parental drug sensitivity), VBL: drug resistance level 3; for Modulator potency in MDR cells (minimal concentration restoring parental drug sensitivity), VCR: drug resistance level 7
# Protocol: as §1, §2, §3, §4, §5
# [3] = Inhibition of population growth (cytotoxicity), rat colon adenocarcinoma RCC-5; format: cell-based; details: rat, rcc-5 cells; RCC-5; Table III; read-out: Modulator concentration (nontoxic concentration limit of the analog)
# Text: as §6, §1
# RCC-2 cells = assay: Modulation of intrinsic drug resistance, RCC-2; format: cell-based, rat; details: IC50 drug alone / IC50 drug + modulator, at nontoxic concentration limit
# Protocol: as §1, §7, §8
# (§9) the nontoxic concentration limit of each analog as noted.
# RCC-5 cells = assay: Modulation of intrinsic drug resistance, RCC-5; format: cell-based, rat; details: RCC-5; IC50 drug alone / IC50 drug + modulator, at nontoxic concentration limit
# Protocol: as §1, §7, §8, §9
# FIG. 9 represents the modulation of VCR sensitivity in the RCC-12 (A) and RCC-5 (B) cell lines by the analog C-20'-deoxy deethyl vincovaline. Population growth was determined after 72 hours incubation in the absence (o), or presence of 10 μM (o), 20 μM (Δ), or 50 μM of analog. Data presented are from a typical experiment.
# [4] = Inhibition of population growth (cytotoxicity), rat colon adenocarcinoma RCC-2; format: cell-based; details: rat, rcc-2 cells; RCC-2; Table III; read-out: Modulator concentration (nontoxic concentration limit of the analog)
# Text: as §6, §1
# [5] = test system: S180/MDR cell system and rat colon cancer cell lines; assay: Cytotoxicity in the S180/MDR cell system and the rat colon cancer cell lines; format: cell-based, mouse; details: S-180, 72 h
# Text: as §6, §1
# [6] = test system: parental cell lines (S180, RCC-2, RCC-5); assay: Modulation of intrinsic resistance in the parental cell lines (S180, RCC-2, RCC-5); format: cell-based, mouse, rat
# Protocol: as §1, §7, §8, §9
# [7] = Inhibition of population growth (cytotoxicity), S180 sarcoma, parental; format: cell-based, mouse; details: mouse, s180 cells; S180; Table III; read-out: Modulator concentration (nontoxic concentration limit of the analog)
# Text: as §6, §1
SMILES,reversal of high level ADM resistance (S180/A10 cells; ADM),"Modulator potency in MDR cells (minimal concentration restoring parental drug sensitivity), VBL (S180/A10 cells)","Modulator potency in MDR cells (minimal concentration restoring parental drug sensitivity), VCR (S180/A10 cells)","Modulator potency in MDR cells (minimal concentration restoring parental drug sensitivity), ADM (S180/A3 cells)","Modulator potency in MDR cells (minimal concentration restoring parental drug sensitivity), VBL (S180/A3 cells)","Modulator potency in MDR cells (minimal concentration restoring parental drug sensitivity), VCR (S180/A3 cells)",MNTC at 72 h [3],"Maximum sensitization of parental cells by modulator, drug ADM (RCC-2 cells)","Maximum sensitization of parental cells by modulator, drug VBL (RCC-2 cells)","Maximum sensitization of parental cells by modulator, drug VCR (RCC-2 cells)","Maximum sensitization of parental cells by modulator, drug ADM (RCC-5 cells)","Maximum sensitization of parental cells by modulator, drug VBL (RCC-5 cells)","Maximum sensitization of parental cells by modulator, drug VCR (RCC-5 cells)",MNTC at 72 h [4],"Maximum sensitization of parental cells by modulator, drug ADM (S180 cells, parental)","Maximum sensitization of parental cells by modulator, drug VBL (S180 cells, parental)","Maximum sensitization of parental cells by modulator, drug VCR (S180 cells, parental)",IC50 [5],modulation of intrinsic cellular resistance to ADM and/or VCR (in words) [6],effect on the sensitivity of parental cells to VBL (in words) [6],also measured
"CCC12C=CCN3CC[C@@]4(c5ccc(OC)cc5N(C)[C@H]4[C@@](O)(C(=O)OC)[C@@H]1OC(C)=O)[C@@H]32 (some centres unmarked) [vindoline, reference compound]",–,–,–,–,–,–,–,–,–,–,–,–,–,–,–,–,–,–,–,–,"reversal of high level ADM resistance (in words) (S180/A10 cells; A10 cells, 90 fold ADM resistance): limited in this activity by their own cytoxicity in the MDR cell lines; inherent cytotoxicity / resistance profile (in words) [1]: equitoxic to parental and MDR cell lines; IC50 ([1]; Mus musculus, S-180, S180 parental and MDR cell lines, read-out: IC50 (inhibition of cell growth)): 40 µM; inherent cytotoxicity / resistance profile (in words) ([1]; S180, A3, A10): inhibited the growth of the parental and MDR cell strains with a similar dependence on concentration; modulation of sensitivity of parental S180 cells to VBL, VCR and ADM (in words) (S180 cells, parental): sensitized S180 cells to all three drugs with a similar dependence on its concentration; also recorded: sensitized the parental S180 cells to all three drugs; modulation of sensitivity of parental S180 cells to VBL, VCR and ADM (in words) (S180 cells, parental; listed as Vindoline): no evidence of selective modulation; modulation of cellular resistance to VBL, VCR and ADM in MDR cell strains (in words) ([2]; A3 and A10): modulators of cellular resistance to VBL, VCR and ADM; relation of reversing concentration to degree of drug resistance (in words) ([2]; A3 and A10, VBL, VCR, ADM): This correllation was not observed"
"CCC1CC2CN(CCc3c([nH]c4ccccc34)C(C(=O)OC)(c3cc4c(cc3OC)N(C)C3C(O)(C(=O)OC)C(OC(C)=O)C5(CC)C=CCN6CCC43C65)C2)C1 (stereo not drawn) [analog n° 353, C-14'-epi-C-20'-deoxy-VBL]",80%,10.0 µM,13.0 µM,35. μM,4.0 µM,4.0 µM,10 µM,2.1,1.8,7.3,6.4,1.6,3.5,10 µM,4.0,1.4,7.0,≥ 5 µM,modulated intrinsic cellular resistance to ADM and/or VCR,less effect on the sensitivity of parental cells to VBL,"Modulator potency in MDR cells, ADM (value marked #) (S180/A10 cells; ADM, drug resistance level 90, #: significant (>50%) reversal at the maximum nontoxic concentration): 40. μM; enhancement of VCR cytotoxicity in the parental cell lines [6]: 7-18 fold; MNTC at 72 h [7]: 40 µM; range of resistance levels over which parental sensitivity was restored ([2]; VBL): 3-90 fold"
"CC[C@H]1C[C@@H]2CN(CCc3c([nH]c4ccccc34)[C@](C(=O)OC)(c3cc4c(cc3OC)N(C)[C@H]3[C@@](O)(C(=O)OC)[C@H](OC(C)=O)[C@]5(CC)C=CCN6CC[C@]43[C@@H]65)C2)C1 [analog n° 354, C-20'-deoxy-C-16', 20' epi VBL]",80%,10.0 µM,20.0 µM,25. μM,1.7 µM,10.0 µM,5 µM,1.9,1.2,4.0,5.3,1.9,18.0,5 µM,5.0,1.0,3.0,≥ 5 µM,modulated intrinsic cellular resistance to ADM and/or VCR,less effect on the sensitivity of parental cells to VBL,"Modulator potency in MDR cells (minimal concentration restoring parental drug sensitivity), ADM (S180/A10 cells; ADM, drug resistance level 90): 40. μM; enhancement of VCR cytotoxicity in the parental cell lines [6]: 7-18 fold; MNTC at 72 h [7]: 20 µM; range of resistance levels over which parental sensitivity was restored ([2]; VBL): 3-90 fold"
